The results in this text go back to patent US5747327A, “Phospholipase D gene originated from plant” (priority 1993, dated 1998).

Assay [1] concerns the target T1, rice bran phospholipase D (PLD), Oryza sativa variety Koshihikari, eluted solution Mono Q 2nd-II (Oryza sativa, UniProt Q43007).
T1 construct: processed N-terminus (residues 1-46 removed according to earlier note), precursor 812 aa
The experiment in a line: Km of purified rice bran PLD, fraction Mono Q 2nd-II (choline oxidase method). It is filed as biochemical. As to conditions: Mono Q 2nd-II fraction; phosphatidylcholine as the substrate, choline quantified by choline oxidase method. On the procedure: (§1) For the purification, a reference relating to the purification of rice bran PLD (Takano et al., J. Jpn. Soc. Food Sci. Technol., 34, 8-13 (1987)) was referred. The enzyme activity was measured by using phosphatidylcholine as the substrate and by quantifying the choline generated by the enzyme reaction by the choline oxidase method (Imamura et al., J. Biochem. 83, 677-680 (1978)). The enzyme reaction, however, was stopped by heat treatment at 95° C. for 5 minutes.
(§2) The two fractions were analyzed for properties of the enzymes contained therein. […] The pH stability means the range in which decrease in activity was not observed after leaving the enzyme to stand at 25° C. for 30 minutes. The temperature stability was measured by measuring remaining activity after leaving the enzyme to stand at 4° C., 25° C., 37° C. or 50° C. for 30 minutes. The substrate specificity was measured at a substrate concentration of 5 mM and is expressed as a relative activity taking the enzyme activity to phosphatidylcholine as 100.

For assay [2], the target named is T2, rice bran phospholipase D (PLD), Oryza sativa variety Koshihikari, eluted solution Mono Q 2nd-I (Oryza sativa, UniProt Q43007).
T2 construct: processed N-terminus (residues 1-46 removed according to earlier note), precursor 812 aa
T2 sequence (Q43007 47-812 P139S): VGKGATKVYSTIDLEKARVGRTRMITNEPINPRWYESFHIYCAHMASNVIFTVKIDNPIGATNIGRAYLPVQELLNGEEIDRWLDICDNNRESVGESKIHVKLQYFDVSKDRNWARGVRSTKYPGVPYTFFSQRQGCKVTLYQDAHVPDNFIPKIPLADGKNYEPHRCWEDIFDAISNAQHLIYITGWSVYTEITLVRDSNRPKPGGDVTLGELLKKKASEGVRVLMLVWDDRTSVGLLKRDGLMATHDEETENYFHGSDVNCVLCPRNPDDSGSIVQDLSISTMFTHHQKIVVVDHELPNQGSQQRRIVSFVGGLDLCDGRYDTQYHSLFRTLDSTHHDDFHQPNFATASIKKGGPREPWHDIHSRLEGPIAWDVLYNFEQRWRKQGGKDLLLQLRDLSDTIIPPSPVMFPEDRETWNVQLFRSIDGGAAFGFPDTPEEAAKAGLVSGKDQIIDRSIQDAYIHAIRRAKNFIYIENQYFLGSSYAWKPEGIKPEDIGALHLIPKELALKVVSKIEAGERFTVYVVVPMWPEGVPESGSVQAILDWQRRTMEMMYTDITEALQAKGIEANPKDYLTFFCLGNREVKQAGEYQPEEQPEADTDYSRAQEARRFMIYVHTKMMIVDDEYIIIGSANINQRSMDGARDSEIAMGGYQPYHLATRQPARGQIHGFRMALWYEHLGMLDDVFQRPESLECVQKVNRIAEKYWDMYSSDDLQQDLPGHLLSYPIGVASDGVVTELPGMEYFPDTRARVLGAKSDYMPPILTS
The experiment in a line: Km of purified rice bran PLD, fraction Mono Q 2nd-I (choline oxidase method). It is filed as biochemical. As to conditions: Mono Q 2nd-I fraction; phosphatidylcholine as the substrate, choline quantified by choline oxidase method. On the procedure:
as §1, §2

T1 sequence (Q43007 47-812 P139S): as above

With phosphatidylcholine, the Km in assay [1] and in assay [2] was 290 µM each time.

A word on the Km: it is the substrate concentration at which the rate is half of its maximum.
